Source: patent US20240376113A1 (Volastra Therapeutics, Inc., priority 2020, published 2024)
Where two headings read alike, the source gives them in different places.

What was measured:
[1] = biological target: ENPP1 on MDA-MB-231 cells (Homo sapiens (Human), UniProt P22413); experiment: Inhibition of ENPP1 hydrolysis of AMP p-nitrophenyl ester on MDA-MB-231 cells (Assay 2); type: cell-based; settings: pNP-AMP 0.25 mM, MDA-MB-231 cells, 37° C. 3 h, KI,app from IC50 via Cheng/Prusoff
Description: Inhibition of ENPP1 Hydrolysis of AMP p-Nitrophenyl Ester on MDA-MB-231 Cells (Assay 2)
ENPP1 is normally expressed on the human metastatic breast cancer cell line MDA-MB-231. Hydrolysis of the p-nitrophenyl ester of AMP (pNP-AMP), an isostere of ATP, is selectively catalyzed by ENPP1 in the supernatant of MDA-MB-231 cell cultures. Inhibition of the hydrolysis of pNP-AMP by MDA-MB-231 at pH 7.4 and 37° C. is a good model of physiologically relevant activity of membrane-bound ENPP1 at disease-relevant expression levels.
MDA-MB-231 cells were harvested using TypLE Express Enzyme digestion and suspended in 100 μL of Leibovitz's L-15 Medium, 20% FBS, seeding the cells in a 96-well assay plate with 4.5×10^4 cells/well. Cells were incubated at 37 C with 1% CO2 for 24 h. In a separate dilution plate, 2× of top dose of compound was prepared in phenol-red free 1640 medium without FBS and then 1:3 serial diluted in the same medium. The cell culture medium of L15 medium was aspirated carefully and cells were washed with PBS once, and 50 μL per well of test compound or DMSO blank are added to the assay plate. Substrate mix (50 μL; 0.5 mM pNP-AMP in phenol-red free 1640 media without FBS) was added for a pNP-AMP final concentration of 0.25 mM. The system was incubated at 37° C. for 3 h.

[2] = biological target: ENPP-1 ECD (Homo sapiens (Human), UniProt P22413); experiment: Inhibition of ENPP1 hydrolysis of 2′,3′-cGAMP (Assay 1); settings: AMP-Glo luminescence, KI from IC50 via Cheng/Prusoff
Description: Test compounds were plated in a 3× dilution scheme in a 384 well plate.

[3] = read-out: Assay 2 KI,app values (class)
[4] = Assay 1 KI values (class), 2,3-cGAMP 24 μM
[5] = read-out: Assay 1 KI values (class), 2,3-cGAMP 24 μM
[6] = read-out: Assay 1 KI, 2,3-cGAMP 24 μM

Chain of ENPP-1 ECD (P22413 98-925): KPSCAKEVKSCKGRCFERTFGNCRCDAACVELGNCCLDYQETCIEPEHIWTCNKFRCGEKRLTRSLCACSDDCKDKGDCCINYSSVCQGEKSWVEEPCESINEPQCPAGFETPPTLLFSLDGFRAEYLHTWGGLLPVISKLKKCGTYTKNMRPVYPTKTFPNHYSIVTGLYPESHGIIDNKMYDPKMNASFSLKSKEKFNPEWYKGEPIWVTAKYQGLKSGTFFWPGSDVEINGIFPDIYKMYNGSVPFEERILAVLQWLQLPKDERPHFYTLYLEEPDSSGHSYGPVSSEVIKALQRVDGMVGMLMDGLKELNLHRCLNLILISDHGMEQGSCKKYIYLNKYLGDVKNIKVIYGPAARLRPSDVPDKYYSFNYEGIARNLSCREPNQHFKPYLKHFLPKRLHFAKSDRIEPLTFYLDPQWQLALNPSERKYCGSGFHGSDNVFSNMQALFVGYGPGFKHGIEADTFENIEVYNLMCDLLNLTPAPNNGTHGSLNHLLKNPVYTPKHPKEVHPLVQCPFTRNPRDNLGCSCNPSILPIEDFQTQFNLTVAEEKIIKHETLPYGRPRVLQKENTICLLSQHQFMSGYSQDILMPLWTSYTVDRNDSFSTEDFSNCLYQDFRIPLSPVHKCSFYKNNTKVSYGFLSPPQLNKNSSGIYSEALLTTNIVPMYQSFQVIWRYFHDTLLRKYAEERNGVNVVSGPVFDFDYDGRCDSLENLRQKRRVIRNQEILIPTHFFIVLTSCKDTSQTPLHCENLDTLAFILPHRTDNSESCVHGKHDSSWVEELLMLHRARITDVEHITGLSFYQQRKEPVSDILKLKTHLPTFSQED
Chain of ENPP1 on MDA-MB-231 cells (P22413 whole entry): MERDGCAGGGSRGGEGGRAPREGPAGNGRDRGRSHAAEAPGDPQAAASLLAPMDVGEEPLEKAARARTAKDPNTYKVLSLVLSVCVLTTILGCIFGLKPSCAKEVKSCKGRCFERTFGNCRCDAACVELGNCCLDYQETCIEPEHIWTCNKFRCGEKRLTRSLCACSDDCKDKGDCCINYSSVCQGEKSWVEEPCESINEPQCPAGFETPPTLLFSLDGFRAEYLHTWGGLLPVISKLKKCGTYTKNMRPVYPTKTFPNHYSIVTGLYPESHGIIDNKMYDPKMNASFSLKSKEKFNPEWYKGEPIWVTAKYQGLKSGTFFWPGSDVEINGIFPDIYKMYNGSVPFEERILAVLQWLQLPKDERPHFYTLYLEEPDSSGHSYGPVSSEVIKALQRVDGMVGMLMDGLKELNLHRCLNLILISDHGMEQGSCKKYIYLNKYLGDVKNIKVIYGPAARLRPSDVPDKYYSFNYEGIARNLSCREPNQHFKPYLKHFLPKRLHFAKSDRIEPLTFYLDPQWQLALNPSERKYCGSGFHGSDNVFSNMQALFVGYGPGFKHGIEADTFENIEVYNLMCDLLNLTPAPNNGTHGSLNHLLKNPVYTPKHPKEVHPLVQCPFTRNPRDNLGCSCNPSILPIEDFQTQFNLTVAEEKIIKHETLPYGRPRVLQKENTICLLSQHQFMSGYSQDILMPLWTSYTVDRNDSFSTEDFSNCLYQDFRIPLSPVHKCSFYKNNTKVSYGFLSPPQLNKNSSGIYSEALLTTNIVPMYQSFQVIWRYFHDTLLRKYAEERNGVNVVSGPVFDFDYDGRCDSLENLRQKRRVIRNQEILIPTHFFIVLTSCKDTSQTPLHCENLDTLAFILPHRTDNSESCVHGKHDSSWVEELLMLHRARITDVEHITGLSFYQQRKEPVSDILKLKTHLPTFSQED

| Ki ([1]; read-out: Assay 2 KI, app) [nM] | Ki [1, 3] [nM] | Ki [2, 4] [nM] | Ki [2, 5] [nM] | Ki [2, 6] [nM] | SMILES |
| --- | --- | --- | --- | --- | --- |
| 1.11 | < 10 | < 3 | – | – | CN(C)c1c(Cc2ccc(S(C)(=N)=O)cc2)c(C2CC2)nc2ncnn12 (centres unmarked) [Compound 53, (4-{[5-cyclopropyl-7-(dimethylamino)-[1,2,4]triazolo[1,5-a]pyrimidin-6-yl]methyl}phenyl)(imino)methyl-λ^6-sulfanone] |
| 1.65 | – | < 3 | – | – | Cc1nc2ncnn2c(N(C)C)c1Cc1ccc(S(=N)(=O)Cc2ccccc2)cc1 (centres unmarked) [Compound 55, benzyl(4-((7-(dimethylamino)-5-methyl-[1,2,4]triazolo[1,5-a]pyrimidin-6-yl)methyl)phenyl)(imino)-λ^6-sulfanone] |
| 9.59 | < 10 | < 3 | – | – | CCS(=N)(=O)c1ccc(Cc2c(C)nc3ncnn3c2N(C)C)cc1 (centres unmarked) [Compound 57, (4-{[7-(dimethylamino)-5-methyl-[1,2,4]triazolo[1,5-a]pyrimidin-6-yl]methyl}phenyl)(ethyl)imino-λ^6-sulfanone] |
| 11.5 | > 10 | < 3 | – | – | Cc1nc2ncnn2c(N(C)C)c1Cc1ccc(S(=N)(=O)CCO)cc1 (centres unmarked) [Compound 59, (4-{[7-(dimethylamino)-5-methyl-[1,2,4]triazolo[1,5-a]pyrimidin-6-yl]methyl}phenyl)(2-hydroxyethyl)imino-λ^6-sulfanone] |
| 6.25 | < 10 | < 3 | – | 0.0862 | COCCS(=N)(=O)c1ccc(Cc2c(C)nc3ncnn3c2N(C)C)cc1 (centres unmarked) [Compound 60, (4-{[7-(dimethylamino)-5-methyl-[1,2,4]triazolo[1,5-a]pyrimidin-6-yl]methyl}phenyl)(imino)(2-methoxyethyl)-λ^6-sulfanone] |
| 4.41 | < 10 | < 3 | – | 0.0667 | CC(=O)NCCS(=N)(=O)c1ccc(Cc2c(C)nc3ncnn3c2N(C)C)cc1 (centres unmarked) [Compound 64, N-{2-[(4-{[7-(dimethylamino)-5-methyl-[1,2,4]triazolo[1,5-a]pyrimidin-6-yl]methyl}phenyl)(imino)oxo-λ^6-sulfanyl]ethyl}acetamide] |
| 0.769 | < 10 | < 3 | – | 0.0285 | Cc1nc2ncnn2c(N(C)C)c1Cc1ccc(S(=N)(=O)CCC(=O)O)cc1 (centres unmarked) [Compound 72, 3-[(4-{[7-(dimethylamino)-5-methyl-[1,2,4]triazolo[1,5-a]pyrimidin-6-yl]methyl}phenyl)(imino)oxo-λ^6-sulfanyl]propanoic acid] |
| 0.505 | – | – | – | 0.00881 | Cc1nc2ncnn2c(N(C)C)c1Cc1ccc([S@@](=N)(=O)CCC(=O)O)cc1 [Compound 72a] |
| 7.7 | < 10 | < 3 | – | – | Cc1nc2ncnn2c(N(C)C)c1Cc1ccc(S(=N)(=O)CCN)cc1 (centres unmarked) [Compound 73, (2-aminoethyl)(4-{[7-(dimethylamino)-5-methyl-[1,2,4]triazolo[1,5-a]pyrimidin-6-yl]methyl}phenyl)imino-λ^6-sulfanone] |
| 7.13 | < 10 | < 3 | – | – | CN(C)c1c(Cc2ccc(S(C)(=N)=O)cc2)c(Cl)nc2ncnn12 (centres unmarked) [Compound 74, (4-{[5-chloro-7-(dimethylamino)-[1,2,4]triazolo[1,5-a]pyrimidin-6-yl]methyl}phenyl)(imino)methyl-λ^6-sulfanone] |
| 1.34 | < 10 | – | < 3 | 0.0523 | CN(C)c1c(Cc2ccc([S@@](C)(=N)=O)cc2)c(Cl)nc2ncnn12 [Compound 74a] |
| 36.7 | > 10 | < 3 | – | – | Cc1cc2ncnn2c(N2CCCC2)c1Cc1ccc(S(C)(=N)=O)cc1 (centres unmarked) [Compound 75, imino(methyl)(4-{[7-methyl-5-(pyrrolidin-1-yl)-[1,2,4]triazolo[1,5-a]pyridin-6-yl]methyl}phenyl)-λ^6-sulfanone] |
| 38.6 | > 10 | < 3 | – | – | Cc1cc2ncnn2c(N2CCCCC2)c1Cc1ccc(S(C)(=N)=O)cc1 (centres unmarked) [Compound 76, imino(methyl)(4-{[7-methyl-5-(piperidin-1-yl)-[1,2,4]triazolo[1,5-a]pyridin-6-yl]methyl}phenyl)-λ^6-sulfanone] |
| 24.1 | > 10 | < 3 | – | – | CS(=N)(=O)c1ccc(Cc2c(Cl)nc3ncnn3c2N2CCCC2)cc1 (centres unmarked) [Compound 78, (4-{[5-chloro-7-(pyrrolidin-1-yl)-[1,2,4]triazolo[1,5-a]pyrimidin-6-yl]methyl}phenyl)(imino)methyl-λ^6-sulfanone] |
| 74.4 | > 10 | < 3 | – | 2.86 | CN(C)c1c(Cc2ccc(S(C)(=N)=O)cc2)c(C#N)nc2ncnn12 (centres unmarked) [Compound 79, 7-(dimethylamino)-6-({4-[imino(methyl)oxo-λ^6-sulfanyl]phenyl}methyl)-[1,2,4]triazolo[1,5-a]pyrimidine-5-carbonitrile] |
| 2.54 | < 10 | < 3 | – | 0.0443 | Cc1c(Cc2ccc(S(C)(=N)=O)cc2)c(N(C)C)n2ccnc2c1C#N (centres unmarked) [Compound 80, 5-(dimethylamino)-6-({4-[imino(methyl)oxo-λ^6-sulfanyl]phenyl}methyl)-7-methylimidazo[1,2-a]pyridine-8-carbonitrile] |
| 0.589 | < 10 | – | < 3 | 0.016 | Cc1c(Cc2ccc([S@@](C)(=N)=O)cc2)c(N(C)C)n2ccnc2c1C#N [Compound 80a] |
| 13.5 | > 10 | < 3 | – | 0.817 | Cc1nc2ncnn2c(N2CCCC2)c1Cc1ccc(B(O)O)cc1 [Compound 81, (4-{[5-methyl-7-(pyrrolidin-1-yl)-[1,2,4]triazolo[1,5-a]pyrimidin-6-yl]methyl}phenyl)boronic acid] |
| 69.9 | > 10 | < 3 | – | 1.16 | Cc1nc2ncnn2c(N2CCCC2)c1Cc1ccc(C(=O)NO)cc1 [Compound 82, N-hydroxy-4-{[5-methyl-7-(pyrrolidin-1-yl)-[1,2,4]triazolo[1,5-a]pyrimidin-6-yl]methyl}benzamide] |
| 0.724 | – | – | – | 0.0287 | Cc1c(Cc2ccc(S(C)(=N)=O)cc2)c(N(C)C)n2ncnc2c1C#N (centres unmarked) [Compound 85, 5-(dimethylamino)-6-({4-[imino(methyl)oxo-λ^6-sulfanyl]phenyl}methyl)-7-methyl-[1,2,4]triazolo[1,5-a]pyridine-8-carbonitrile] |
| 0.447 | – | – | – | 0.0184 | Cc1cc2ncnn2c(N(C)C)c1Cc1ccc(S(=N)(=O)CCC(=O)O)cc1 (centres unmarked) [Compound 87, 3-[(4-{[5-(dimethylamino)-7-methyl-[1,2,4]triazolo[1,5-a]pyridin-6-yl]methyl}phenyl)(imino)oxo-λ^6-sulfanyl]propanoic acid] |
| 0.222 | – | – | – | 0.00586 | COc1nc2ncnn2c(N(C)C)c1Cc1ccc([S@@](C)(=N)=O)cc1 [Compound 88a] |

| SMILES | Ki ([1]; read-out: Assay 2 KI, app) [nM] | Ki [1, 3] [nM] | Ki [2, 4] [nM] | Ki [2, 5] [nM] | Ki [2, 6] [nM] |
| --- | --- | --- | --- | --- | --- |
| CS(=N)(=O)c1ccc(Cc2cnc3ncnn3c2N2CCCC2)cc1 (centres unmarked) [Compound 54] | 74.7 | > 10 | – | < 3 | 1.71 |
